In ChEMBL document CHEMBL6109139, “Rational Design of the First Dual Agonist at Trace Amine-Associated Receptor 1 and 5-HT2C Receptors Based on Binding Pocket Similarity for the Treatment of Schizophrenia and Alzheimer's Disease-Related Psychosis” (J Med Chem, 2025):
Active and inactive are the calls of the source. The rule behind the calls is not given here.

How the values were obtained:
[1] = Inhibition of CYP2D6 in human liver microsomes in presence of NADPH by LC-MS/MS analysis; assay type: ADME, Microsome
[2] = Toxicity in female Beagle dog assessed as change in blood pressure at 0.75 to 2.5 mg/kg, IG administered once daily for 4 weeks and measured after 4 weeks; assay type: organism-based, Canis lupus familiaris; conditions: in vivo, po, 1344 h, dose 0.75-2.5 mg/kg, time 8 weeks
[3] = molecular target: Glucocorticoid receptor (Homo sapiens) (UniProt P04150); assay: Binding affinity to GR receptor (unknown origin) at 10 uM by radioligand binding assay relative to control
Sequence of Glucocorticoid receptor (Homo sapiens) (P04150 whole entry): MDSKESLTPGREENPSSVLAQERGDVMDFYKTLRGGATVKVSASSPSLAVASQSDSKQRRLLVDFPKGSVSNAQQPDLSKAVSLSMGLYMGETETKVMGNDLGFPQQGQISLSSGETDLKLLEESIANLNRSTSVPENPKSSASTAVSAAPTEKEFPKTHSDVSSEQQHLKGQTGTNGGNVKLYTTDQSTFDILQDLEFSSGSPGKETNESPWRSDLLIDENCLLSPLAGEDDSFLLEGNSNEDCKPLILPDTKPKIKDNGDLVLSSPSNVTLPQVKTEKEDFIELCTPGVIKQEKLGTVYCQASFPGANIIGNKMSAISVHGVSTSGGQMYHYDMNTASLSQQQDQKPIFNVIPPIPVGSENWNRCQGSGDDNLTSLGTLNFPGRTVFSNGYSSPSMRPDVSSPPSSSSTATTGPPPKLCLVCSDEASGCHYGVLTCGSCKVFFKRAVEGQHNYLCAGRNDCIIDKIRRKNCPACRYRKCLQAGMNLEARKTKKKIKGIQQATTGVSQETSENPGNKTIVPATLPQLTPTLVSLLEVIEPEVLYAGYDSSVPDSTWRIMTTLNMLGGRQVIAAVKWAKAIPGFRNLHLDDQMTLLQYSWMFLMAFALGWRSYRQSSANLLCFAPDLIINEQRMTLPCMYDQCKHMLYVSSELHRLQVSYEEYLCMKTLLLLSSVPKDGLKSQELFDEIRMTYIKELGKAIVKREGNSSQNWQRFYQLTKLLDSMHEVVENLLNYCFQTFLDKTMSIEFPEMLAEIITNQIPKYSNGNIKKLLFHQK

[4] = molecular target: Voltage-gated inwardly rectifying potassium channel KCNH2 (Homo sapiens, UniProt Q12809); assay: Inhibition of human ERG expressed in CHO cells by whole cell patch clamp technique; assay type: toxicity, cell-based
Sequence of Voltage-gated inwardly rectifying potassium channel KCNH2 (Q12809 whole entry): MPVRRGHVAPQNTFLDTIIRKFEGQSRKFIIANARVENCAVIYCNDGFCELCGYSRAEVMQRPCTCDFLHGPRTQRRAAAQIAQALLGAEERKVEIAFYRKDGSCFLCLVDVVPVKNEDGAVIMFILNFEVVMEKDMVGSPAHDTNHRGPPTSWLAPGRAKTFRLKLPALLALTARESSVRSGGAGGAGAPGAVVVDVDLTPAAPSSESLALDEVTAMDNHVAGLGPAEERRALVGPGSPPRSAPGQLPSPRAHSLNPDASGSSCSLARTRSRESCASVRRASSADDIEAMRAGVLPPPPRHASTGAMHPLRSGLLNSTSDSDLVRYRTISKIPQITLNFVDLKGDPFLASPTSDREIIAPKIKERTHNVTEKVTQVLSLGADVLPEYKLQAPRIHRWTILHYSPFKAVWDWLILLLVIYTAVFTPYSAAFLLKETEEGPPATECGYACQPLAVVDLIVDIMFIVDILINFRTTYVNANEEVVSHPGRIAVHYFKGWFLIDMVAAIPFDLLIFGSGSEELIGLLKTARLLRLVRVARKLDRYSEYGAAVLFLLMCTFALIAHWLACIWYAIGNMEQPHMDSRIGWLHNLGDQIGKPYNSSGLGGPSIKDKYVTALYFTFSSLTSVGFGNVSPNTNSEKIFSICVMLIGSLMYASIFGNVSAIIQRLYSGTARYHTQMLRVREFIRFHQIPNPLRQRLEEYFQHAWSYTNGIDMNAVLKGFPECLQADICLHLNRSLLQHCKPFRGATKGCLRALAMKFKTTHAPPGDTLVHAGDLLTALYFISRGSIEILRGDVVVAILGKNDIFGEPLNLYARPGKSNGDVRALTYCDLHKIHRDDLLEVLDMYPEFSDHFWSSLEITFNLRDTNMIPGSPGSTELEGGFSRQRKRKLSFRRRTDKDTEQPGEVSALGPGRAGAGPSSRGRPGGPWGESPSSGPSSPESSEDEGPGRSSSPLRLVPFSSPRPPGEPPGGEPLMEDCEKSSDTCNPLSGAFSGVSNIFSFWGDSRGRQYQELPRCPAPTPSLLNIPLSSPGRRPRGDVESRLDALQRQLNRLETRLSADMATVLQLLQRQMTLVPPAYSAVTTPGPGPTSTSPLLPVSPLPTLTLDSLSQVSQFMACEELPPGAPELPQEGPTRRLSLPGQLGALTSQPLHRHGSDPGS

Mus musculus = assay: Antipsychotic activity against DOI-induced head-twitch response in mouse assessed as reduction in head-twitch response at 10 mg/kg, IG measured for 30 mins relative to control; assay type: functional; parameters: scale not given: the % may be the effect or the level left; conditions: 0.5 h
[5] = Drug concentration in male Sprague-Dawley rat brain at 5 mg/kg, IG measured after 0.25 hrs by LC-MS/MS analysis; assay type: ADME, organism-based; conditions: in vivo, po
[6] = Toxicity in male Beagle dog assessed as somnolence at 2.5 mg/kg, IG administered once daily for 4 weeks and measured after 4 weeks; assay type: organism-based, Canis lupus familiaris; conditions: in vivo, po, 1344 h, time 8 weeks
[7] = Toxicity in female Beagle dog assessed as change in prolactin at 0.75 to 2.5 mg/kg, IG administered once daily for 4 weeks and measured after 4 weeks; assay type: organism-based, Canis lupus familiaris; conditions: in vivo, po, 1344 h, dose 0.75-2.5 mg/kg, time 8 weeks
[8] = Toxicity in male Sprague-Dawley rat assessed as change in blood glucose level at 2.5 to 7.5 mg/kg, po administered once daily for 4 weeks and measured after 4 weeks; assay type: organism-based; conditions: in vivo, 1344 h, dose 2.5-7.5 mg/kg, time 8 weeks
[9] = Toxicity in female Sprague-Dawley rat assessed as change in blood glucose level at 2.5 to 7.5 mg/kg, po administered once daily for 4 weeks and measured after 4 weeks; assay type: organism-based; conditions: in vivo, 1344 h, dose 2.5-7.5 mg/kg, time 8 weeks
[10] = Toxicity in female Sprague-Dawley rat assessed as minimal corneal neovascularization at 7.5 mg/kg, po administered once daily for 4 weeks; assay type: organism-based; conditions: in vivo, 672 h
[11] = Toxicity in Sprague-Dawley rat assessed as fasciculation 2.5 to 7.5 mg/kg, po administered once daily for 4 weeks; assay type: organism-based; conditions: in vivo, 672 h, dose 2.5-7.5 mg/kg
[12] = Toxicity in male Beagle dog assessed as change in body temperature at 0.75 to 2.5 mg/kg, IG administered once daily for 4 weeks and measured after 4 weeks; assay type: organism-based, Canis lupus familiaris; conditions: in vivo, po, 1344 h, dose 0.75-2.5 mg/kg, time 8 weeks
[13] = Toxicity in male Beagle dog assessed as change in bone marrow smears at 0.75 to 2.5 mg/kg, IG administered once daily for 4 weeks and measured after 4 weeks; assay type: organism-based, Canis lupus familiaris; conditions: in vivo, po, 1344 h, dose 0.75-2.5 mg/kg, time 8 weeks
[14] = molecular target: Mu-type opioid receptor (Homo sapiens) (UniProt P35372); assay: Binding affinity to op-mu receptor (unknown origin) at 10 uM by radioligand binding assay relative to control
[15] = molecular target: D(1A) dopamine receptor (Homo sapiens) (UniProt P21728); assay: Binding affinity to D1 receptor (unknown origin) at 10 uM by radioligand binding assay relative to control
Sequence of D(1A) dopamine receptor (Homo sapiens) (P21728 whole entry): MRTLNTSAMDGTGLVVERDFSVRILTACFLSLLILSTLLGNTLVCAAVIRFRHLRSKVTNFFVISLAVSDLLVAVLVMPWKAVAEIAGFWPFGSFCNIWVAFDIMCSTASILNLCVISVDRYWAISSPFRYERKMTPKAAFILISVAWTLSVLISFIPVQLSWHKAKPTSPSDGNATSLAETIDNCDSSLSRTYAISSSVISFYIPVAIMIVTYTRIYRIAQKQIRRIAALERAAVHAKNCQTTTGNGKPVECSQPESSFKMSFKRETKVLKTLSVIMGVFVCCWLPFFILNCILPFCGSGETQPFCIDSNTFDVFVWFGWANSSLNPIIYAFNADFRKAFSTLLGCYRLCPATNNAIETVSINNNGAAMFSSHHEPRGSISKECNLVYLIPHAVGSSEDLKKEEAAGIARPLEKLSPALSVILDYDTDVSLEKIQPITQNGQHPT

[16] = Cardiotoxicity in conscious cynomolgus monkey assessed as good general health at 3.125 to 12.5 mg/kg, IG; assay type: toxicity, organism-based, Macaca fascicularis; conditions: in vivo, po, dose 3.125-12.5 mg/kg
[17] = Toxicity in female Beagle dog assessed as change in body temperature at 0.75 to 2.5 mg/kg, IG administered once daily for 4 weeks and measured after 4 weeks; assay type: organism-based, Canis lupus familiaris; conditions: in vivo, po, 1344 h, dose 0.75-2.5 mg/kg, time 8 weeks
[18] = Toxicity in female Beagle dog assessed as change in gross necropsy at 0.75 to 2.5 mg/kg, IG administered once daily for 4 weeks and measured after 4 weeks; assay type: organism-based, Canis lupus familiaris; conditions: in vivo, po, 1344 h, dose 0.75-2.5 mg/kg, time 8 weeks
[19] = Toxicity in male Sprague-Dawley rat assessed as change in urinalysis at 2.5 to 7.5 mg/kg, po administered once daily for 4 weeks and measured after 4 weeks; assay type: organism-based; conditions: in vivo, 1344 h, dose 2.5-7.5 mg/kg, time 8 weeks
[20] = molecular target: Histamine H1 receptor (Homo sapiens) (UniProt P35367); assay: Binding affinity to H1 receptor (unknown origin) at 10 uM by radioligand binding assay relative to control
Sequence of Histamine H1 receptor (Homo sapiens) (P35367 whole entry): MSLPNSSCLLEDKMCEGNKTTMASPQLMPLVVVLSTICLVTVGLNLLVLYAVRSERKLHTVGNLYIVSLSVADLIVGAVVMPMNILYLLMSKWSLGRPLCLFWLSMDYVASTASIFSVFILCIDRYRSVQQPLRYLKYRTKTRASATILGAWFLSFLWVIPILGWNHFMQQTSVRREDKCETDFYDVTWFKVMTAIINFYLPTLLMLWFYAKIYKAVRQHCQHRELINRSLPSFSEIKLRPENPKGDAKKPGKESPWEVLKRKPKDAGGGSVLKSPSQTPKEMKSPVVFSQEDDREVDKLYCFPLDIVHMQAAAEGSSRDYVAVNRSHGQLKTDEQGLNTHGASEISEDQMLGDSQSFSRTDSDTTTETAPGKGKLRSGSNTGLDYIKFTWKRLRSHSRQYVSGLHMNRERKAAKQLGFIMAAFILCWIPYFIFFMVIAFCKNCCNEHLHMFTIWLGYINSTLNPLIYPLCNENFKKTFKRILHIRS

Homo sapiens = species on record: Homo sapiens; assay: Binding affinity to CCKa (unknown origin) at 10 uM by radioligand binding assay relative to control
D(2) dopamine receptor = D(2) dopamine receptor (Homo sapiens, UniProt P14416); assay: Antagonist activity at human D2L receptor expressed in Flp-In-CHO cells; assay type: cell-based
[21] = Mutagenicity in Salmonella typhimurium TA1535 by Ames test; assay type: toxicity; conditions: salmonella enterica subsp. enterica serovar typhimurium
[22] = Ratio of drug concentration in male Sprague-Dawley rat brain to plasma at 5 mg/kg, IG measured after 6 hrs by LC-MS/MS analysis; assay type: ADME, organism-based; conditions: brain and plasma, po, read-out: BPR
[23] = Toxicity in male Sprague-Dawley rat assessed as change in prolactin level at 2.5 to 7.5 mg/kg, po administered once daily for 4 weeks and measured after 4 weeks; assay type: organism-based; conditions: in vivo, 1344 h, dose 2.5-7.5 mg/kg, time 8 weeks
[24] = Toxicity in female Beagle dog assessed as change in clinical chemistry at 0.75 to 2.5 mg/kg, IG administered once daily for 4 weeks and measured after 4 weeks; assay type: organism-based, Canis lupus familiaris; conditions: in vivo, po, 1344 h, dose 0.75-2.5 mg/kg, time 8 weeks
[25] = Toxicity in female Beagle dog assessed as change in bone marrow smears at 0.75 to 2.5 mg/kg, IG administered once daily for 4 weeks and measured after 4 weeks; assay type: organism-based, Canis lupus familiaris; conditions: in vivo, po, 1344 h, dose 0.75-2.5 mg/kg, time 8 weeks
[26] = Toxicity in male Sprague-Dawley rat assessed as corneal epithelial degeneration at 7.5 mg/kg, po administered once daily for 4 weeks; assay type: organism-based; conditions: in vivo, 672 h
[27] = molecular target: cGMP-inhibited 3',5'-cyclic phosphodiesterase 3A (Homo sapiens) (UniProt Q14432); assay: Binding affinity to PDE3A receptor (unknown origin) at 10 uM by radioligand binding assay relative to control
Sequence of cGMP-inhibited 3',5'-cyclic phosphodiesterase 3A (Homo sapiens) (Q14432 whole entry): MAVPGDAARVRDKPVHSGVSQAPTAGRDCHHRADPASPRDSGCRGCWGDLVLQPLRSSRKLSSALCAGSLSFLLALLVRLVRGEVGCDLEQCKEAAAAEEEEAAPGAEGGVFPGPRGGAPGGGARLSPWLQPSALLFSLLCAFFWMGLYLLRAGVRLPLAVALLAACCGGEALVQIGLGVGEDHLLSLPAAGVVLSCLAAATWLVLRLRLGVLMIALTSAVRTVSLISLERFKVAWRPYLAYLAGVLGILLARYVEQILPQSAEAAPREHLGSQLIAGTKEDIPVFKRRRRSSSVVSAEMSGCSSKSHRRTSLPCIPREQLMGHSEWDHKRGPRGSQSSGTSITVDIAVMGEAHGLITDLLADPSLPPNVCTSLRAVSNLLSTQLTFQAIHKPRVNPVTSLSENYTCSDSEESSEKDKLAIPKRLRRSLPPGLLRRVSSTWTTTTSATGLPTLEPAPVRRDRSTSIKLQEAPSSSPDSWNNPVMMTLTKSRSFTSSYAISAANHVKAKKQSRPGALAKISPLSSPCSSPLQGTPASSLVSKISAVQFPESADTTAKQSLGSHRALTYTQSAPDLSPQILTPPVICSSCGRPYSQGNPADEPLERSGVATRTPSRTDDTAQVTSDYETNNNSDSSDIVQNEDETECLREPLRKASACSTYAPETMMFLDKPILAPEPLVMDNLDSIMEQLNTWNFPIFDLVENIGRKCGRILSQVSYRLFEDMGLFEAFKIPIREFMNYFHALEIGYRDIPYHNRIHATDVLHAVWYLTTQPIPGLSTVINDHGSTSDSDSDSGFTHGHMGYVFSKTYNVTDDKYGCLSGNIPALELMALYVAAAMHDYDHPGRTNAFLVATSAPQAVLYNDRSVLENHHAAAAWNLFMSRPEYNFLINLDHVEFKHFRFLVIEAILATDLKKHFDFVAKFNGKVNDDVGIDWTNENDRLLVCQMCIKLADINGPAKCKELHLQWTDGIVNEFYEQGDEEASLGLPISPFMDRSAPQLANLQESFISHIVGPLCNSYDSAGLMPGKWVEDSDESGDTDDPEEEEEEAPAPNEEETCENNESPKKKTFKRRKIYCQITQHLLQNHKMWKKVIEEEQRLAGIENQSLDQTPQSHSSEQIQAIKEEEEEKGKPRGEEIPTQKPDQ

[28] = Cardiotoxicity in conscious cynomolgus monkey assessed as change in mean arterial pressure at 3.125 to 12.5 mg/kg, IG measured within 25 hrs; assay type: toxicity, organism-based, Macaca fascicularis; conditions: in vivo, po, dose 3.125-12.5 mg/kg
[29] = molecular target: 5-hydroxytryptamine receptor 1A (Homo sapiens) (UniProt P08908); assay: Agonist activity at human 5-HT1A expressed in CHO cells coexpressing Galpha15 by measuring maximum efficacy at 2 uM by FLIPR calcium assay relative to control; assay type: functional, cell-based; conditions: filed as agonist
[30] = Toxicity in male Sprague-Dawley rat assessed as suppression of body weight gain at 7.5 mg/kg, po administered once daily for 4 weeks and measured after 4 weeks; assay type: organism-based; conditions: in vivo, 1344 h, time 8 weeks
[31] = Plasma protein binding in rat assessed as unbound fraction by LC-MS/MS analysis; assay type: ADME, cell-free
[32] = molecular target: Cannabinoid receptor 2 (Homo sapiens) (UniProt P34972); assay: Binding affinity to CB2 (unknown origin) at 10 uM by radioligand binding assay relative to control
Sequence of Cannabinoid receptor 2 (Homo sapiens) (P34972 whole entry): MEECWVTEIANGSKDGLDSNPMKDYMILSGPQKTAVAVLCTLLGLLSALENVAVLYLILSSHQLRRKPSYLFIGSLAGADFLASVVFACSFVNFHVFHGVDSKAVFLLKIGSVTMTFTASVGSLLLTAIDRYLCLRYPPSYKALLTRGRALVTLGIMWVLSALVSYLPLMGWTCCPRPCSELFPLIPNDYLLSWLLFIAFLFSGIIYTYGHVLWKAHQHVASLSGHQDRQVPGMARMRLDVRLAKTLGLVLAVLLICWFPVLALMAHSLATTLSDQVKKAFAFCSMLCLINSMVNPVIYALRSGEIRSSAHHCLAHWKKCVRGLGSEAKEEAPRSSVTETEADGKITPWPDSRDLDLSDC

[33] = molecular target: Trace amine-associated receptor 1 (Rattus norvegicus, UniProt Q923Y9); assay: Agonist activity at rat TAAR1; assay type: functional
Sequence of Trace amine-associated receptor 1 (Q923Y9 whole entry): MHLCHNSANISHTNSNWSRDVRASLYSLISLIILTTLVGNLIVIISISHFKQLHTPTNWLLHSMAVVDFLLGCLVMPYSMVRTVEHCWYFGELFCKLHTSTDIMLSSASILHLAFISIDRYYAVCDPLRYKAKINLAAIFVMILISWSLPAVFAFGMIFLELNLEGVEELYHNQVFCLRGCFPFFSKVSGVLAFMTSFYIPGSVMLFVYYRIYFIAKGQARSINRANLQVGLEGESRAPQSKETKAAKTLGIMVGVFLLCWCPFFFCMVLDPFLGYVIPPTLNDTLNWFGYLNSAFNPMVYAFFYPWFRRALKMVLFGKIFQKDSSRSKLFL

[34] = Toxicity in Sprague-Dawley rat assessed as normal spontaneous movement at 2.5 to 7.5 mg/kg, po administered once daily for 4 weeks and measured after 4 weeks; assay type: organism-based; conditions: in vivo, 1344 h, dose 2.5-7.5 mg/kg, time 8 weeks
HEK293 = assay: Agonist activity at 5HT2CR […] mutant (unknown origin) expressed in HEK293 cells assessed as IP1 level by HTRF IP1 competitive binding assay; assay type: cell-based; conditions: Homo sapiens

## c1cc2c(s1)[C@@H]1CNCCN1CC2
[1]
  IC50: > 50 µM
[2]
  Activity: Non-toxic
[3]
  Activity: 33.7%
[4]
  IC50: > 30 µM
Mus musculus
  Activity: 100%
[5]
  Ct: 39250 nmol/kg
[6]
  Activity: Non-toxic
[7]
  Activity: Non-toxic
[8]
  Activity: Non-toxic
[9]
  Activity: Non-toxic
[10]
  Activity: Toxic
[11]
  Activity: Non-toxic
[12]
  Activity: Non-toxic
[13]
  Activity: Non-toxic
[14]
  Activity: 18.2%
[15]
  Activity: 45.9%
[16]
  Activity: Non-toxic
[17]
  Activity: Non-toxic
[18]
  Activity: Non-toxic
[19]
  Activity: Non-toxic
[20]
  Activity: 6.65%
Homo sapiens
  Activity: 1.26%
D(2) dopamine receptor
  IC50: > 100 µM
[21]
  Activity: Non-toxic
[22]
  Kp at 6 h: 4.22
[23]
  Activity: Non-toxic
[24]
  Activity: Non-toxic
[25]
  Activity: Non-toxic
[26]
  Activity: Toxic
[27]
  Activity: 3.89%
[28]
  Activity: Non-toxic
[29]
  Emax: 48.3%
[30]
  Activity: Toxic
[31]
  fraction unbound: 0.759
[32]
  Activity: 2.7%
[33]
  EC50: 0.682 µM
[34]
  Activity: Non-toxic
HEK293
  Activity: inactive
